Each compound was assayed on NL4-3 strain of HIV-1 (assay: Cyto-protection (CellTiter-Glo viability) assay of MT4 cells infected with NL4-3 virus; inhibition of HIV replication). Conditions: Human immunodeficiency virus 1, NL43, 120 h; concentration leading to 50% of cyto-protection; MT4 cells infected with NL4-3 virus; 5 days incubation; CellTiter-Glo; read-out: EC50.
Format: cell-based
Procedure: Preparation of Virus stock of the NL4-3 strain of HIV-1 (Adachi et al, J Virol, 1986, 59(2):284-91).
The virus was prepared as described in Lopez et al (Lopez et al, Proc Natl Acad Sci USA., 2006, 103(40):14947-52, by transfecting 2×10^6 293 T cells (CRL-1573, ATCC) with following modifications: 6 μg of NL4-3 proviral DNA molecular clone were mixed with Fugene 6 transfection reagent from Roche, and used according to manufacturer's instructions. Forty eight hours later, transfected cell supernatants were harvested, filtered through 0.45-μm-pore-size filters, quantified for HIV-1 p24 antigen by using a Innotest HIV antigen mAb assay (Ingen) according to manufacturer's instructions, and used in infection experiments.
Serial dilutions of compounds to be tested were prepared in complete RPMI medium from 10 mM DMSO stock solutions, and I in 96 well Falcon 353072 Microtest[…]distributed in a volume of 20™ tissue culture plate, in order to get 0.5% DMSO final concentration in each well, after the addition of infected cells. Control wells contained also 0.5% DMSO final concentration but no compound.
MT4 cells (from the NIH AIDS Research and Reference Reagent Program) in RPMI complete medium were counted (10×10^6 cells per well in Falcon 353047 Multiwell™ 24 well) and infected for 2 hours at 37°, at a multiplicity of infection (moi) of 0.0001-0.00001. Cells were then centrifuged 3 min at 3000 rpm, and washed two times in 1 ml PBS to remove viruses that have not entered in cells. Infected cells were resuspended in complete RPMI at 1.25×10^6 cells/ml and 80 μl of infected cells were distributed in each well containing compound to be tested or control wells. The plates were then incubated at 37° for 5 days.
Assay used to measure the inhibition of HIV replication by the compounds (according to Gregg S. Jones et al., Antimicrobial Agents and Chemotherapy, 2009, 53 (3): 1194-1203).
After 5 days of incubation, microplates were equilibrated to room temperature for 30 mn and then 50 μl of CellTiter-Glo reagent (Promega Biosciences, Inc., Madison Wis., USA) were added to each well. Cell lysis was carried out at room temperature during 10 min, 150μl of lysates were transferred in Packard Optiplate 96 well, and luminescence was read on a Fluoroskan (Thermo Scientific).
The EC50, or effective concentration 50, is the concentration of compound leading to 50% of cyto-protection in a Cell-Titer-Glo® viability assay based on MT4 cells infected with NL4-3 virus (table 1).

Structure (SMILES)	EC50 [nM]
Cn1nc(-c2ccccc2)c(C2=CCC(C)(C)CC2)c1C(OC(C)(C)C)C(=O)O (stereo not drawn) [Example 1, 2-(tert-butoxy)-2-[4-(4,4-dimethylcyclohex-1-en-1-yl)-1-methyl-3-phenyl-1H-pyrazol-5-yl]acetic acid]	480
Cn1nc(-c2ccccc2)c(-c2ccc3c(c2)CCCO3)c1C(OC(C)(C)C)C(=O)O (stereo not drawn) [Example 2, 2-(tert-butoxy)-2-[4-(3,4-dihydro-2H-1-benzopyran-6-yl)-1-methyl-3-phenyl-1H-pyrazol-5-yl]acetic acid]	680
Cn1nc(-c2cccs2)c(-c2ccc3c(c2)CCCO3)c1C(OC(C)(C)C)C(=O)O (stereo not drawn) [Example 3, 2-(tert-butoxy)-2-[4-(3,4-dihydro-2H-1-benzopyran-6-yl)-1-methyl-3-(thiophen-2-yl)-1H-pyrazol-5-yl]acetic acid]	290
Cn1nc(-c2ccsc2)c(-c2ccc3c(c2)CCCO3)c1C(OC(C)(C)C)C(=O)O (stereo not drawn) [Example 4, 2-(tert-butoxy)-2-[4-(3,4-dihydro-2H-1-benzopyran-6-yl)-1-methyl-3-(thiophen-3-yl)-1H-pyrazol-5-yl]acetic acid]	280
Cn1nc(-c2ccsc2)c(C2=CCC(C)(C)CC2)c1C(OC(C)(C)C)C(=O)O (stereo not drawn) [Example 5, 2-(tert-butoxy)-2-[4-(4,4-dimethylcyclohex-1-en-1-yl)-1-methyl-3-(thiophen-3-yl)-1H-pyrazol-5-yl]acetic acid]	270
Cn1nc(-c2cccs2)c(C2=CCC(C)(C)CC2)c1C(OC(C)(C)C)C(=O)O (stereo not drawn) [Example 6, 2-(tert-butoxy)-2-[4-(4,4-dimethylcyclohex-1-en-1-yl)-1-methyl-3-(thiophen-2-yl)-1H-pyrazol-5-yl]acetic acid]	470
Cc1c(-c2c(-c3cccs3)nn(C)c2C(OC(C)(C)C)C(=O)O)ccc2c1CCCO2 (stereo not drawn) [Example 7, 2-(tert-butoxy)-2-[1-methyl-4-(5-methyl-3,4-dihydro-2H-1-benzopyran-6-yl)-3-(thiophen-2-yl)-1H-pyrazol-5-yl]acetic acid]	410
Cn1nc(-c2nccs2)c(-c2ccc3c(c2)CCCO3)c1C(OC(C)(C)C)C(=O)O (stereo not drawn) [Example 8, 2-(tert-butoxy)-2-[4-(3,4-dihydro-2H-1-benzopyran-6-yl)-1-methyl-3-(1,3-thiazol-2-yl)-1H-pyrazol-5-yl]acetic acid]	3700
Cn1nc(-c2ccccn2)c(-c2ccc3c(c2)CCCO3)c1C(OC(C)(C)C)C(=O)O (stereo not drawn) [Example 9, 2-(tert-butoxy)-2-[4-(3,4-dihydro-2H-1-benzopyran-6-yl)-1-methyl-3-(pyridin-2-yl)-1H-pyrazol-5-yl]acetic acid]	3700
Cc1c(-c2c(-c3cccs3)nn(C)c2C(OC(C)(C)C)C(=O)O)cc(F)c2c1CCCO2 (stereo not drawn) [Example 10, 2-(tert-butoxy)-2-[4-(8-fluoro-5-methyl-3,4-dihydro-2H-1-benzopyran-6-yl)-1-methyl-3-(thiophen-2-yl)-1H-pyrazol-5-yl]acetic acid]	1100
CCCc1cc(-c2nn(C)c(C(OC(C)(C)C)C(=O)O)c2-c2ccc3c(c2)CCCO3)cs1 (stereo not drawn) [Example 11, 2-(tert-butoxy)-2-[4-(3,4-dihydro-2H-1-benzopyran-6-yl)-1-methyl-3-(5-propylthiophen-3-yl)-1H-pyrazol-5-yl]acetic acid]	830
Cn1nc(C2=CCCC2)c(-c2ccc3c(c2)CCCO3)c1C(OC(C)(C)C)C(=O)O (stereo not drawn) [Example 12, 2-(tert-butoxy)-2-[3-(cyclopent-1-en-1-yl)-4-(3,4-dihydro-2H-1-benzopyran-6-yl)-1-methyl-1H-pyrazol-5-yl]acetic acid]	240
Cn1nc(C2=CCCCC2)c(-c2ccc3c(c2)CCCO3)c1C(OC(C)(C)C)C(=O)O (stereo not drawn) [Example 13, 2-(tert-butoxy)-2-[3-(cyclohex-1-en-1-yl)-4-(3,4-dihydro-2H-1-benzopyran-6-yl)-1-methyl-1H-pyrazol-5-yl]acetic acid]	170
Cn1nc(C2=CCC(C)(C)CC2)c(-c2ccc3c(c2)CCCO3)c1C(OC(C)(C)C)C(=O)O (stereo not drawn) [Example 14, 2-(tert-butoxy)-2-[4-(3,4-dihydro-2H-1-benzopyran-6-yl)-3-(4,4-dimethylcyclohex-1-en-1-yl)-1-methyl-1H-pyrazol-5-yl]acetic acid]	1700
Cn1nc(C2=CCCCCC2)c(-c2ccc3c(c2)CCCO3)c1C(OC(C)(C)C)C(=O)O (stereo not drawn) [Example 16, 2-(tert-butoxy)-2-[3-(cyclohept-1-en-1-yl)-4-(3,4-dihydro-2H-1-benzopyran-6-yl)-1-methyl-1H-pyrazol-5-yl]acetic acid]	870
CC1C=C(c2nn(C)c(C(OC(C)(C)C)C(=O)O)c2-c2ccc3c(c2)CCCO3)CCC1 (stereo not drawn) [Example 17, 2-(tert-butoxy)-2-[4-(3,4-dihydro-2H-1-benzopyran-6-yl)-1-methyl-3-(3-methylcyclohex-1-en-1-yl)-1H-pyrazol-5-yl]acetic acid]	740
CC1CCCC=C1c1nn(C)c(C(OC(C)(C)C)C(=O)O)c1-c1ccc2c(c1)CCCO2 (stereo not drawn) [Example 18, 2-(tert-butoxy)-2-[4-(3,4-dihydro-2H-1-benzopyran-6-yl)-1-methyl-3-(6-methylcyclohex-1-en-1-yl)-1H-pyrazol-5-yl]acetic acid]	500
Cn1nc(C2CCCC2)c(-c2ccc3c(c2)CCCO3)c1C(OC(C)(C)C)C(=O)O (stereo not drawn) [Example 19, 2-(tert-butoxy)-2-[3-cyclopentyl-4-(3,4-dihydro-2H-1-benzopyran-6-yl)-1-methyl-1H-pyrazol-5-yl]acetic acid]	3900
Cn1nc(C2CCCCC2)c(-c2ccc3c(c2)CCCO3)c1C(OC(C)(C)C)C(=O)O (stereo not drawn) [Example 20, 2-(tert-butoxy)-2-[3-cyclohexyl-4-(3,4-dihydro-2H-1-benzopyran-6-yl)-1-methyl-1H-pyrazol-5-yl]acetic acid]	1400
Cn1nc(CC2CCCC2)c(-c2ccc3c(c2)CCCO3)c1C(OC(C)(C)C)C(=O)O (stereo not drawn) [Example 21, 2-(tert-butoxy)-2-[3-(cyclopentylmethyl)-4-(3,4-dihydro-2H-1-benzopyran-6-yl)-1-methyl-1H-pyrazol-5-yl]acetic acid]	9300
C=C(C)c1nn(C)c(C(OC(C)(C)C)C(=O)O)c1-c1ccc2c(c1)CCCO2 (stereo not drawn) [Example 22, 2-(tert-butoxy)-2-[4-(3,4-dihydro-2H-1-benzopyran-6-yl)-1-methyl-3-(prop-1-en-2-yl)-1H-pyrazol-5-yl]acetic acid]	8000
C=C(c1nn(C)c(C(OC(C)(C)C)C(=O)O)c1-c1ccc2c(c1)CCCO2)C1CCCC1 (stereo not drawn) [Example 23, 2-(tert-butoxy)-2-[3-(1-cyclopentylethenyl)-4-(3,4-dihydro-2H-1-benzopyran-6-yl)-1-methyl-1H-pyrazol-5-yl]acetic acid]	2000
CC1CCC=C1c1nn(C)c(C(OC(C)(C)C)C(=O)O)c1-c1ccc2c(c1)CCCO2 (stereo not drawn) [Example 26, 2-(tert-butoxy)-2-[4-(3,4-dihydro-2H-1-benzopyran-6-yl)-1-methyl-3-(5-methylcyclopent-1-en-1-yl)-1H-pyrazol-5-yl]acetic acid]	630
Cn1nc(/C=C/C2CC2)c(-c2ccc3c(c2)CCCO3)c1C(OC(C)(C)C)C(=O)O (stereo not drawn) [Example 27, 2-(tert-butoxy)-2-{3-[(E)-2-cyclopropylethenyl]-4-(3,4-dihydro-2H-1-benzopyran-6-yl)-1-methyl-1H-pyrazol-5-yl}acetic acid]	5300
C/C=C/c1nn(C)c(C(OC(C)(C)C)C(=O)O)c1-c1ccc2c(c1)CCCO2 (stereo not drawn) [Example 29, 2-(tert-butoxy)-2-[4-(3,4-dihydro-2H-1-benzopyran-6-yl)-1-methyl-3-[(1E)-prop-1-en-1-yl]-1H-pyrazol-5-yl]acetic acid]	1400
CCCc1nn(C)c(C(OC(C)(C)C)C(=O)O)c1-c1ccc2c(c1)CCCO2 (stereo not drawn) [Example 30, 2-(tert-butoxy)-2-[4-(3,4-dihydro-2H-1-benzopyran-6-yl)-1-methyl-3-propyl-1H-pyrazol-5-yl]acetic acid]	32000

Same assay, conditions: Human immunodeficiency virus 1, NL43, MT4, 120 h

Structure (SMILES)	EC50 [nM]
Cn1nc(C2=CC3CCC2C3)c(-c2ccc3c(c2)CCCO3)c1C(OC(C)(C)C)C(=O)O (stereo not drawn) [Example 15, 2-(3-{bicyclo[2.2.1]hept-2-en-2-yl}-4-(3,4-dihydro-2H-1-benzopyran-6-yl)-1-methyl-1H-pyrazol-5-yl)-2-(tert-butoxy)acetic acid]	550
